Measurements from US10266548B2, “Substituted benzylindazoles for use as Bub1 kinase inhibitors in the treatment of hyperproliferative diseases” (Bayer Intellectual Property GmbH, priority 2011, dated 2019).
Structures can show the parent of a compound that is named as a salt. Where two headings read alike, the source gives them in different places.

Experiments:
[1] = tested on: NCI-H460 cells; experiment: Proliferation assay (H460 cell line); assay type: cell-based; settings: Homo sapiens, NCI-H460, 96 h, read-out: Biological Assay 2: Proliferation assay (H460 cell line) median IC50
Procedure: (§1) Cultivated tumor cells (cells were ordered from ATCC, except HeLa-MaTu and HeLa-MaTu-ADR, which were ordered from EPO-GmbH, Berlin) were plated at a density of 1000 to 5000 cells/well, depending on the growth rate of the respective cell line, in a 96-well multititer plate in 200 μL of their respective growth medium supplemented 10% fetal calf serum. After 24 hours, the cells of one plate (zero-point plate) were stained with crystal violet (see below), while the medium of the other plates was replaced by fresh culture medium (200 μl), to which the test substances were added in various concentrations (0 μM, as well as in the range of 0.001-10 μM; the final concentration of the solvent dimethyl sulfoxide was 0.5%). The cells were incubated for 4 days in the presence of test substances. Cell proliferation was determined by staining the cells with crystal violet: the cells were fixed by adding 20 μl/measuring point of an 11% glutaric aldehyde solution for 15 minutes at room temperature. After three washing cycles of the fixed cells with water, the plates were dried at room temperature. The cells were stained by adding 100 μl/measuring point of a 0.1% crystal violet solution (pH 3.0). After three washing cycles of the stained cells with water, the plates were dried at room temperature. The dye was dissolved by adding 100 μl/measuring point of a 10% acetic acid solution. […] The change of cell number, in percent, was calculated by normalization of the measured values to the aborbtion values of the zero-point plate (=0%) and the absorbtion of the untreated (0 μm) cells (=100%). The IC50 values were determined by means of a 4 parameter fit using the company's own software.

[2] = tested on: HeLa cells; experiment: Proliferation assay (HeLa cell line); assay type: cell-based; settings: Homo sapiens, 96 h, read-out: Biological Assay 2: Proliferation assay (HeLa cell line) median IC50
[3] = tested on: B16F10 cells; experiment: Proliferation assay (B16F10 cell line); assay type: cell-based; settings: Mus musculus, B16-F10, 96 h, read-out: Biological Assay 2: Proliferation assay (B16F10 cell line) median IC50
Procedure: as §1

[4] = tested on: Caco2 cells; experiment: Proliferation assay (Caco2 cell line); assay type: cell-based; settings: Homo sapiens, Caco-2, 96 h, read-out: Biological Assay 2: Proliferation assay (Caco2 cell line) median IC50
Procedure: as §1

[5] = tested on: DU145 cells; experiment: Proliferation assay (DU145 cell line); assay type: cell-based; settings: Homo sapiens, DU-145, 96 h, read-out: Biological Assay 2: Proliferation assay (DU145 cell line) median IC50
Procedure: as §1

[6] = biological target: catalytic domain of human Bub1 (amino acids 704-1085) (Homo sapiens (Human), UniProt O43683); experiment: Bub1 kinase assay (TR-FRET); assay type: biochemical; settings: 10 μM ATP, 1 μM peptide substrate; read-out: Biological Assay 1: Bub1 kinase assay median IC50
Chain of catalytic domain of human Bub1 (amino acids 704-1085) (O43683 704-1085): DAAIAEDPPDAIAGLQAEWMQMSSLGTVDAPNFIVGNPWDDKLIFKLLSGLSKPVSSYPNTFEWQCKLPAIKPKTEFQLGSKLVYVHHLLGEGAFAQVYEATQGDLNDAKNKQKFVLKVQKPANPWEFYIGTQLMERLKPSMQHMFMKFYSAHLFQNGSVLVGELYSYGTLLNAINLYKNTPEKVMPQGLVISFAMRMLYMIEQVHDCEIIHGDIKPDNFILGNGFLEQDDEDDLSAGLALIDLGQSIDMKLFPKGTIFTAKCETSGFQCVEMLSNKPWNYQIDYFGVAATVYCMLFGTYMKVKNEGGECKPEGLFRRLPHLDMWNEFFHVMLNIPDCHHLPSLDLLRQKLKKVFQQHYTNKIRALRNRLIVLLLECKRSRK
In short: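 Phosphoserine product detected by TR-FRET (Eu-labeled anti-mouse IgG/anti-phosphoserine antibody to streptavidin-XL665) after 1 h at 22 °C. IC50 from 4-parameter logistic fit.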

[7] = tested on: HeLa-MaTu-ADR cells; experiment: Proliferation assay (HeLa-MaTu-ADR cell line); assay type: cell-based; settings: 96 h, read-out: Biological Assay 2: Proliferation assay (HeLa-MaTu-ADR cell line) median IC50
Procedure: as §1

`COc1cnc(-c2nn(Cc3c(F)cc(C#N)cc3F)c3ccccc23)nc1Nc1ccncc1` [Example 2-46-1, 3,5-difluoro-4-({3-[5-methoxy-4-(pyridin-4-ylamino)pyrimidin-2-yl]-1H-indazol-1-yl}methyl)benzonitrile] gave an IC50 [1] of 880 nM, an IC50 [2] of 1400 nM and an IC50 [3] of 710 nM. The IC50 [4] was 900 nM, the IC50 [5] was 850 nM and the IC50 [6] was 16 nM. For the same molecule, the IC50 [7] was 380 nM.
In the case of `COc1cnc(-c2nn(Cc3c(Cl)ccc(NC(C)=O)c3Cl)c3ccccc23)nc1Nc1ccncc1` [Example 41-1, N-[2,4-dichloro-3-({3-[5-methoxy-4-(pyridin-4-ylamino)pyrimidin-2-yl]-1H-indazol-1-yl}methyl)phenyl]acetamide], the IC50 ([1]; H460, 4 days, crystal violet) is reported as 10000 nM, the IC50 ([2]; 4 days, crystal violet) is reported as 6000 nM and the IC50 ([3]; B16F10, 4 days, crystal violet) is reported as 1800 nM. The IC50 ([4]; Caco2, 4 days, crystal violet) was 3300 nM, the IC50 ([5]; DU145, 4 days, crystal violet) was 10000 nM and the IC50 [6] was 19 nM. It also gave an IC50 ([7]; HeLa-MaTu-ADR, 4 days, crystal violet) of 10000 nM.
With `COc1ccc(Cn2nc(-c3nccc(Nc4ccncc4)n3)c3ccccc32)cc1` [Example 5-2, 2-[1-(4-methoxybenzyl)-1H-indazol-3-yl]-N-(pyridin-4-yl)pyrimidin-4-amine] the IC50 [1] was 3000 nM, the IC50 [2] was 710 nM and the IC50 [3] was 3000 nM. It also gave an IC50 [4] of 3000 nM, an IC50 [5] of 3000 nM and an IC50 [6] of 27 nM. It also gave an IC50 [7] of 3000 nM.
`CCOc1cc(F)c(Cn2nc(-c3ncc(OCC(O)CN4CCCCC4)c(Nc4ccncc4)n3)c3ccccc32)c(F)c1` (stereo not drawn) [Example 4-9, 1-({2-[1-(4-ethoxy-2,6-difluorobenzyl)-1H-indazol-3-yl]-4-(pyridin-4-ylamino)pyrimidin-5-yl}oxy)-3-(piperidin-1-yl)propan-2-ol] showed an IC50 [1] of 1300 nM, an IC50 [2] of 1700 nM and an IC50 [3] of 530 nM. It also gave an IC50 [4] of 780 nM, an IC50 [5] of 1300 nM and an IC50 [6] of 5.4 nM. The IC50 [7] was 860 nM.
For `OCC(O)COc1cnc(-c2nn(Cc3ccccc3F)c3ccccc23)nc1Nc1ccncc1` (stereo not drawn) [Example 12-1, 3-({2-[1-(2-fluorobenzyl)-1H-indazol-3-yl]-4-(pyridin-4-ylamino)-pyrimidin-5-yl}oxy)propane-1,2-diol], the IC50 [1] was 10000 nM, the IC50 [2] was ≥ 10000 nM and the IC50 [3] was 10000 nM. For the same molecule, the IC50 [4] was 10000 nM, the IC50 [5] was 10000 nM and the IC50 [6] was 11 nM. It also gave an IC50 [7] of 10000 nM.
For `COc1cnc(-c2nn(Cc3c(Cl)cccc3Cl)c3ccccc23)nc1Nc1ccncc1` [Example 2-9-1, 2-[1-(2,6-dichlorobenzyl)-1H-indazol-3-yl]-5-methoxy-N-(pyridin-4-yl)pyrimidin-4-amine], the IC50 [1] was 10000 nM, the IC50 [3] was 9500 nM and the IC50 [4] was 10000 nM. The IC50 [5] was 10000 nM, the IC50 [6] was 6.7 nM and the IC50 [7] was 8100 nM.
`COc1cnc(-c2nn(Cc3c(F)c(F)c(OCC(F)(F)F)c(F)c3F)c3ccccc23)nc1Nc1ccncc1` [Example 2-15-1, 5-methoxy-N-(pyridin-4-yl)-2-{1-[2,3,5,6-tetrafluoro-4-(2,2,2-trifluoroethoxy)benzyl]-1H-indazol-3-yl}pyrimidin-4-amine] gave an IC50 ([2]; 4 days, crystal violet) of 4700 nM and an IC50 [6] of 38 nM.
With `COc1cnc(-c2nn(Cc3c(F)cc(F)cc3F)c3ccccc23)nc1Nc1ccncc1` [Example 2-17-1, 5-methoxy-N-(pyridin-4-yl)-2-[1-(2,4,6-trifluorobenzyl)-1H-indazol-3-yl]pyrimidin-4-amine] the IC50 [2] was ≥ 10000 nM and the IC50 [6] was 8.8 nM.
With `OC[C@@H](O)COc1cnc(-c2nn(Cc3ccccc3F)c3ccccc23)nc1Nc1ccncc1` [Example 12-2, (2R)-3-({2-[1-(2-fluorobenzyl)-1H-indazol-3-yl]-4-(pyridin-4-ylamino)pyrimidin-5-yl}oxy)propane-1,2-diol] the IC50 [2] was ≥ 10000 nM and the IC50 [6] was 4.6 nM.
In the case of `O=C(O)c1cnccc1Nc1nc(-c2nn(Cc3ccccc3F)c3ccccc23)ncc1O` [Example 30-2, 4-({2-[1-(2-fluorobenzyl)-1H-indazol-3-yl]-5-hydroxypyrimidin-4-yl}amino)pyridine-3-carboxylic acid], the IC50 ([2]; 4 days, crystal violet) is reported as ≥ 10000 nM and the IC50 [6] is reported as 20 nM.
For `COc1ccc(Cn2nc(-c3ncc(OC)c(Nc4ccncc4)n3)c3ccccc32)cc1` [Example 2-23-1, 5-methoxy-2-[1-(4-methoxybenzyl)-1H-indazol-3-yl]-N-(pyridin-4-yl)pyrimidin-4-amine], the IC50 [2] was 9300 nM and the IC50 [6] was 13 nM.
For `CCOC(=O)Cc1cccc(Cn2nc(-c3ncc(OC)c(Nc4ccncc4)n3)c3ccccc32)c1` [Example 2-35-1, ethyl [3-({3-[5-methoxy-4-(pyridin-4-ylamino)pyrimidin-2-yl]-1H-indazol-1-yl}methyl)phenyl]acetate], the IC50 ([2]; 4 days, crystal violet) was ≥ 10000 nM and the IC50 [6] was 52 nM.
`CCOc1cc(F)c(Cn2nc(-c3nccc(N(C(=O)COCCOC)c4ccncc4)n3)c3ccccc32)c(F)c1` [Example 16-4, N-{2-[1-(4-ethoxy-2,6-difluorobenzyl)-1H-indazol-3-yl]pyrimidin-4-yl}-2-(2-methoxyethoxy) N-(pyridin-4-yl)acetamide] was tested, and the IC50 ([2]; 4 days, crystal violet) was 2700 nM and the IC50 [6] was 20 nM.
`COc1ccc(Cn2nc(-c3ncc(OC)c(Nc4ccncc4)n3)c3ccccc32)c(Cl)c1` [Example 2-6-1, 2-[1-(2-chloro-4-methoxybenzyl)-1H-indazol-3-yl]-5-methoxy-N-(pyridin-4-yl)pyrimidin-4-amine] showed an IC50 ([2]; 4 days, crystal violet) of 3800 nM and an IC50 [6] of 4.7 nM.
`Fc1ccccc1Cn1nc(-c2ncc(OCCc3nnn[nH]3)c(Nc3ccncc3)n2)c2ccccc21` [Example 4-5-1, 2-[1-(2-fluorobenzyl)-1H-indazol-3-yl]-N-(pyridin-4-yl)-5-[2-(1H-tetrazol-5-yl)ethoxy] pyrimidin-4-amine] was tested, and the IC50 ([2]; 4 days, crystal violet) was ≥ 10000 nM and the IC50 [6] was 18 nM.
With `CCOc1cc(F)c(Cn2nc(-c3nccc(N(C(=O)C4CCOCC4)c4ccncc4)n3)c3ccccc32)c(F)c1` [Example 16-3, N-{2-[1-(4-ethoxy-2,6-difluorobenzyl)-1H-indazol-3-yl]pyrimidin-4-yl}-N-(pyridin-4-yl)tetrahydro-2H-pyran-4-carboxamide] the IC50 [2] was 4100 nM and the IC50 [6] was 210 nM.
In the case of `OC[C@H](O)COc1cnc(-c2nn(Cc3ccccc3F)c3ccccc23)nc1Nc1ccncc1` [Example 15-2, (2S)-3-({2-[1-(2-fluorobenzyl)-1H-indazol-3-yl]-4-(pyridin-4-ylamino)pyrimidin-5-yl}oxy)propane-1,2-diol hydrochloride (1:1)], the IC50 [2] is reported as ≥ 10000 nM and the IC50 [6] is reported as 5.5 nM.
For `COc1cnc(-c2nn(Cc3c(Cl)ccc(C(=O)NCCO)c3Cl)c3ccccc23)nc1Nc1ccncc1` [Example 20-4, 2,4-dichloro-N-(2-hydroxyethyl)-3-({3-[5-methoxy-4-(pyridin-4-yla-mino)pyrimidin-2-yl]-1H-indazol-1-yl}methyl) benzamide], the IC50 ([2]; 4 days, crystal violet) was ≥ 10000 nM and the IC50 [6] was 750 nM.
In the case of `COc1cnc(-c2nn(Cc3cccc(C(C)(C)CO)c3)c3ccccc23)nc1Nc1ccncc1` [Example 8-3, 2-[3-({3-[5-methoxy-4-(pyridin-4-ylamino)pyrimidin-2-yl]-1H-indazol-1-yl}methyl)phenyl]-2-methylpropan-1-ol], the IC50 ([2]; 4 days, crystal violet) is reported as ≥ 10000 nM and the IC50 [6] is reported as 240 nM.
`CCCOc1cc(F)c(Cn2nc(-c3ncc(OC)c(Nc4ccncc4)n3)c3ccccc32)c(F)c1` [Example 2-52-1, 2-[1-(2,6-difluoro-4-propoxybenzyl)-1H-indazol-3-yl]-5-methoxy-N-(pyridin-4-yl)pyrimidin-4-amine] showed an IC50 [2] of 2100 nM and an IC50 [6] of 11 nM.
